We go through 25 compounds from patent US9994587B2, “HIV protease inhibitors” (priority 2014, dated 2018).

Each structure is given as a SMILES string.

The target of this assay is T1, wildtype HIV-1 protease (Human immunodeficiency virus type 1 group M subtype B, UniProt P04585).
T1 construct: preincubated with the HIV-1 protease (wild type) enzyme in assay buffer; made in house; host or cells: Escherichia coli
Put plainly: Assay for inhibition of microbial expressed HIV protease (Pepcleav). It is filed as biochemical. The conditions noted are these: wild type HIV-1 protease 20 pM, peptide substrate 400 micromolar, pH 5.5; mean of at least two independent experiments. The gist of the method: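 E. coli-expressed enzyme preincubated with inhibitor 30 min at room temperature in 50 mM sodium acetate pH 5.5, 100 mM NaCl, 0.1% BSA, then 400 micromolar peptide substrate added with 20 picomolar protease (final), 1 h at 30° C. Product quantified by LC-MS/MS peak area after formic acid/indinavir quench.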
As to `COC(=O)N[C@H](C(=O)Nc1cncc(F)c1CC[C@@H]1CNC[C@@H](COc2ccc(C#N)cc2)O1)C(c1ccccc1)c1ccccc1` [Example 82, Methyl[(1S)-2-{[4-(2-{(2R,6S)-6-[(4-cyanophenoxy)methyl]morpholin-2-yl}ethyl)-5-fluoropyridin-3-yl]amino}-1-(diphenylmethyl)-2-oxoethyl]carbamate], the IC50 – broadly, the midpoint of a concentration-inhibition curve – was 9.8 nM. This lies in the single-digit nanomolar range.
In turn, `COC(=O)N[C@H](C(=O)Nc1nccnc1CC[C@@H]1CNC[C@@H](CSc2ccc(Cl)cc2)O1)C(c1ccccc1)c1ccccc1` [Example 83, methyl N-[(1S)-1-benzhydryl-2-[[3-[2-[(2R,6S)-6-[(4-chlorophenyl)sulfanylmethyl]morpholin-2-yl]ethyl]pyrazin-2-yl]amino]-2-oxo-ethyl]carbamate] yielded an IC50 of 27 nM.
On to `COC(=O)N[C@H](C(=O)Nc1nccnc1CC[C@@H]1CNC[C@@H](COc2ccc(C#N)cc2)O1)C(c1ccccc1)c1ccccc1` [Example 84, methyl N-[(1S)-1-benzhydryl-2-[[3-[2-[(2R,6S)-6-[(4-cyanophenoxy)methyl]morpholin-2-yl]ethyl]pyrazin-2-yl]amino]-2-oxo-ethyl]carbamate], for which half-maximal inhibition (IC50) was put at 430 nM. This IC50 lies about 16-fold higher than the previous one.
On to `COC(=O)N[C@H](C(=O)Nc1ncccc1CC[C@@H]1CNC[C@@H](COc2ccc(C#N)cc2)O1)C(c1ccccc1)c1ccccc1` [Example 85, N-[3-(2-{(2R,6S)-6-[(4-cyanophenoxy)methyl]morpholin-2-yl}ethyl)pyridin-2-yl]-Nα-(methoxycarbonyl)-β-phenyl-L-phenylalaninamide], for which inhibition was half-maximal at 88 nM (IC50).
Regarding `COC(=O)N[C@H](C(=O)Nc1c(CC[C@@H]2CNC[C@@H](COc3ccc(C#N)cc3)O2)cc[nH]c1=O)C(c1ccccc1)c1ccccc1` [Example 86, N-[4-(2-{(2R,6S)-6-[(4-cyanophenoxy)methyl]morpholin-2-yl}ethyl)-2-oxo-1,2-dihydropyridin-3-yl]-Nα-(methoxycarbonyl)-β-phenyl-L-phenylalaninamide], half-maximal inhibition (IC50) required 4.1 nM.
`COC(=O)N[C@H](C(=O)Nc1c(CC[C@@H]2CNC[C@@H](CSc3ccc(Cl)cc3)O2)cc[nH]c1=O)C(c1ccccc1)c1ccccc1` [Example 87, N-(4-{2-[(2R,6S)-6-{[(4-chlorophenyl)sulfanyl]methyl}morpholin-2-yl]ethyl}-2-oxo-1,2-dihydropyridin-3-yl)-Nα-(methoxycarbonyl)-β-phenyl-L-phenylalaninamide] came in with a half-inhibitory concentration (IC50) of 0.05 nM.
With `N[C@H](C(=O)Nc1c(CC[C@@H]2CNC[C@@H](CSc3ccc(Cl)cc3)O2)cc[nH]c1=O)C(c1ccccc1)c1ccccc1` [Example 88, N-(4-{2-[(2R,6S)-6-{[(4-chlorophenyl)sulfanyl]methyl}morpholin-2-yl]ethyl}-2-oxo-1,2-dihydropyridin-3-yl)-β-phenyl-L-phenylalaninamide], inhibition was half-maximal at 0.04 nM (IC50).
Compound `O=C(Nc1c(CC[C@@H]2CNC[C@@H](CSc3ccc(Cl)cc3)O2)cc[nH]c1=O)[C@@H](NCC(F)(F)F)C(c1ccccc1)c1ccccc1` [Example 89, N-(4-{2-[(2R,6S)-6-{[(4-chlorophenyl)sulfanyl]methyl}morpholin-2-yl]ethyl}-2-oxo-1,2-dihydropyridin-3-yl)-β-phenyl-Nα-(2,2,2-trifluoroethyl)-L-phenylalaninamide] displayed an IC50 of 12.3 nM.
The value for `COC(=O)N[C@H](C(=O)Nn1c(CC[C@@H]2CNC[C@@H](COc3ccc(C#N)cc3)O2)cccc1=O)C(c1ccccc1)c1ccccc1` [Example 90, N-[6-(2-{(2R,6S)-6-[(4-cyanophenoxy)methyl]morpholin-2-yl}ethyl)-2-oxopyridin-1 (2H)-yl]-Nα-(methoxycarbonyl)-β-phenyl-L-phenylalaninamide] was 53.3 nM.
Take `N#Cc1cccc(SC[C@@H]2CNC[C@@H](CCc3c(F)cncc3NC(=O)[C@@H](N)C(c3ccc(F)cc3)c3ccc(F)cc3)O2)c1` [Example 102, N-(4-{2-[(2R,6S)-6-{[(3-cyanophenyl)sulfanyl]methyl}morpholin-2-yl]ethyl}-5-fluoropyridin-3-yl)-4-fluoro-β-(4-fluorophenyl)-L-phenylalaninamide]: the concentration for half-maximal inhibition (IC50) stood at 0.47 nM.
As to `N[C@H](C(=O)Nc1cncc(F)c1CC[C@@H]1CNC[C@@H](CSc2ccc(Cl)cc2)O1)C(c1ccc(F)cc1)c1ccc(F)cc1` [Example 104, (S)-2-amino-N-(4-(2-((2R,6S)-6-(((4-chlorophenyl)thio)methyl)morpholin-2-yl)ethyl)-5-fluoropyridin-3-yl)-3,3-bis(4-fluorophenyl)propanamide], half-maximal inhibition (IC50) was put at 0.28 nM.
`N[C@H](C(=O)Nc1cncc(F)c1CC[C@@H]1CNC[C@@H](COC(=O)N2CCOCC2)O1)C(c1ccc(F)cc1)c1ccc(F)cc1` [Example 105, {(2S,6R)-6-[2-(3-fluoro-5-{[4-fluoro-β-(4-fluorophenyl)-L-phenylalanyl]amino}pyridin-4-yl)ethyl]morpholin-2-yl}methyl morpholine-4-carboxylate] showed an IC50 of 29 nM.
The value for `COC(=O)N[C@H](C(=O)NCCCC1CNC[C@@H](CCc2ccc(Cl)cc2)O1)C(c1ccccc1)c1ccccc1` (stereo partly drawn) [Example 107, N-(3-{(6R)-6-[2-(4-chlorophenyl)ethyl]morpholin-2-yl}propyl)-Nα-(methoxycarbonyl)-β-phenyl-L-phenylalaninamide] was 1000 nM.
The value for `COC(=O)N[C@H](C(=O)Nc1ccccc1CC[C@@H]1CNC[C@@H](COc2ccc(-n3ccnc3)cc2)O1)C(c1ccccc1)c1ccccc1` [Example 108, N-(2-{2-[(2R,6S)-6-{[4-(1H-imidazol-1-yl)phenoxy]methyl}morpholin-2-yl]ethyl}phenyl)-Nα-(methoxycarbonyl)-β-phenyl-L-phenylalaninamide] was 37 nM.
`COC(=O)N[C@H](C(=O)Nc1ccccc1CC[C@H]1CNC[C@@H](CS(=O)(=O)c2ccc(Cl)cc2)O1)C(c1ccccc1)c1ccccc1` [Example 109, N-(2-{2-[(2S,6S)-6-{[(4-chlorophenyl)sulfonyl]methyl}morpholin-2-yl]ethyl}phenyl)-Nα-(methoxycarbonyl)-β-phenyl-L-phenylalaninamide] gave a half-maximal inhibitory concentration (IC50) of 770 nM.
Then `C#C[C@@H]1CNC[C@@H](CCc2ccccc2NC(=O)[C@@H](NC(=O)OC)C(c2ccccc2)c2ccccc2)O1` [Example 111, N-(2-{2-[(2R,6R)-6-ethynylmorpholin-2-yl]ethyl}phenyl)-Nα-(methoxycarbonyl)-β-phenyl-L-phenylalaninamide], with 580 nM.
In the case of `COC(=O)N[C@H](C(=O)Nc1ccccc1CC[C@@H]1CNC[C@@H](c2nc3cc(C)c(C)cc3[nH]2)O1)C(c1ccccc1)c1ccccc1` [Example 112, N-(2-{2-[(2R,6S)-6-(5,6-dimethyl-1H-benzimidazol-2-yl)morpholin-2-yl]ethyl}phenyl)-Nα-(methoxycarbonyl)-β-phenyl-L-phenylalaninamide], half-maximal inhibition (IC50) required 850 nM.
Turning to `COC(=O)N[C@H](C(=O)Nc1cccnc1CC[C@@H]1CNC[C@@H](COc2cccc(C#N)c2)O1)C(c1ccccc1)c1ccccc1` [Example 113, N-[2-(2-{(2R,6S)-6-[(3-cyanophenoxy)methyl]morpholin-2-yl}ethyl)pyridin-3-yl]-Nα-(methoxycarbonyl)-β-phenyl-L-phenylalaninamide], half-maximal inhibition (IC50) was put at 510 nM. Compared with the last compound, the IC50 is about 1.7-fold lower.
`COC(=O)N[C@H](C(=O)Nc1n[nH]cc1CC[C@@H]1CNC[C@@H](COc2ccc(S(C)(=O)=O)cc2)O1)C(c1ccccc1)c1ccccc1` [Example 115, Nα-(methoxycarbonyl)-N-(4-{2-[(2R,6S)-6-{[4-(methylsulfonyl)phenoxy]methyl}morpholin-2-yl]ethyl}-1H-pyrazol-3-yl)-β-phenyl-L-phenylalaninamide] gave an IC50 of 370 nM.
Regarding `COC(=O)N[C@H](C(=O)Nc1ccccc1C[C@H]1CNC[C@@H](COc2ccc(C#N)cc2)O1)C(c1ccccc1)c1ccccc1` [Example 117, N-[2-({(2S,6S)-6-[(4-cyanophenoxy)methyl]morpholin-2-yl}methyl)phenyl]-Nα-(methoxycarbonyl)-β-phenyl-L-phenylalaninamide], inhibition was half-maximal at 180 nM (IC50).
The value for `N[C@H](C(=O)Nc1cncc(F)c1CC[C@@H]1CNC[C@@H](CO)O1)C(c1ccc(F)cc1)c1ccc(F)cc1` [Example 120, 4-fluoro-N-(5-fluoro-4-{2-[(2R,6S)-6-(hydroxymethyl)morpholin-2-yl]ethyl}pyridin-3-yl)-β-(4-fluorophenyl)-L-phenylalaninamide] was 380 nM; that for `N[C@H](C(=O)Nc1cccc(F)c1CC[C@@H]1CNC[C@@H](CSc2ccc(Cl)cc2)O1)C(c1ccc(F)cc1)c1ccc(F)cc1` [Example 121, N-(2-{2-[(2R,6S)-6-{[(4-chlorophenyl)sulfanyl]methyl}morpholin-2-yl]ethyl}-3-fluorophenyl)-4-fluoro-β-(4-fluorophenyl)-L-phenylalaninamide] was 5.2 nM; that for `N[C@@H](C(=O)Nc1cncc(F)c1CC[C@@H]1CNC[C@@H](CSc2ccc(Cl)cc2)O1)C(c1ccc(F)cc1)c1ccc(F)cc1` [Example 122, N-(4-{2-[(2R,6S)-6-{[(4-chlorophenyl)sulfanyl]methyl}morpholin-2-yl]ethyl}-5-fluoropyridin-3-yl)-4-fluoro-β-(4-fluorophenyl)-D-phenylalaninamide] was 9 nM.
The compound `N[C@H](C(=O)Nc1cncc(F)c1CC[C@@H]1CNC[C@@H](COC(=O)NCC(F)(F)F)O1)C(c1ccc(F)cc1)c1ccc(F)cc1` [Example 123, 4-fluoro-β-(4-fluorophenyl)-N-(5-fluoro-4-{2-[(2R,6S)-6-({[(2,2,2-trifluoroethyl)carbamoyl]oxy}methyl)morpholin-2-yl]ethyl}pyridin-3-yl)-L-phenylalaninamide] registered an IC50 of 16 nM.
`NC(=O)OC[C@@H]1CNC[C@@H](CCc2c(F)cncc2NC(=O)[C@@H](N)C(c2ccc(F)cc2)c2ccc(F)cc2)O1` [Example 124, N-[4-(2-{(2R,6S)-6-[(carbamoyloxy)methyl]morpholin-2-yl}ethyl)-5-fluoropyridin-3-yl]-4-fluoro-β-(4-fluorophenyl)-L-phenylalaninamide] came in with an IC50 of 120 nM.
